Measurements reported in patent US20250261639A1, “ZEALACTONE DERIVATIVES AS PLANT GROWTH REGULATORS” (SYNGENTA CROP PROTECTION AG, priority 2020, published 2025).

Tests used:
[1] = tested on: Corn seeds (var. NK Falkone); experiment: Corn seed germination under cold stress conditions; type: in vivo; details: Zea mays, 15° C., 60% Relative Humidity; for change in vivo at 250 µM: read-out: increase of the slope of the curve at Tso (uniformity of germination) compared to untreated control; for percent reduction of T50 germination time vs untreated control at 250 µM: read-out: reduction of the Tso value (time taken for 50% germination; speed of germination) in comparison with untreated control
Method: Method: Corn seeds (var. NK Falkone, Syngenta Seeds SAS, St. Sauveur, France) were sorted by size using a sieve to eliminate round seeds. The corn seeds were placed in 24 well plates (1 seed per well, each plate was considered as one experimental unit or replicate). Germination was initiated by the addition of 250 μL of distilled water containing 0.5% DMSO per well (and the tested the substance at the given concentration). 8 replicates (i.e., 8 plates) were used for each treatment characterization. Plates were sealed using seal foil (Polyolefin Art. Nr. 900320) from HJ-BIOANALYTIK. All plates were placed in a climatic chamber at 15° C. with 60% Relative Humidity. The experiment was laid out in a completely randomized design.
Germination was followed over time by taking photographs at different time points. Image analysis was performed automatically with a macro which was developed using the Image J software. A kinetic analysis of germination was carried out by fitting a trend curve. Three parameters were calculated from the trend curve: the Tso (time taken for 50% germination; speed of germination); the slope of the curve (the uniformity of germination) and the plateau (the total percentage of germinated seeds).
The treatments with a given compound were performed at 4 concentrations 2, 10, 50, and 250 μM.

[2] = tested on: Corn leaf discs (variety Multitop); experiment: Dark induced senescence of corn leaf; details: Zea mays, foliar, 192 h; leaf discs in the dark, 23° C., 75% humidity, 8 days, 0.5% DMSO; read-out: IC50 (concentration at which 50% senescence was achieved)
Method: It is known that strigolactones regulate (accelerate) leaf senescence, potentially through D14 receptor signaling. It is also known that senescence is an important process allowing reallocation of nutrients. Compounds of formula (I) were tested in a corn leaf dark induced senescence assay and compared to untreated control.
Corn plants of variety Multitop were grown in a greenhouse with relative 75% humidity and at 23-25° C. for 6 weeks. 1.4 cm diameter leaf discs were placed into 24-well plates containing a test compounds in a concentration gradient (100 μM-0.0001 μM) at a final concentration of 0.5% DMSO. Each concentration was tested in 12 replicates. Plates were sealed with seal foil. The foil was pierced to provide gas exchange in each well. The plates were placed into the completely dark climatic chamber. Plates were incubated in the chamber with 75% humidity and at 23° C. for 8 days. On days 0, 5, 6, 7 and 8 photographs were taken of each plate, and image analysis conducted with a macro developed using the ImageJ software. The image analysis was used to determine the concentration at which 50% senescence was achieved (IC50). The lower the value, the higher senescence induction potency.

SMILES | IC50 [2] [nM] | change in vivo at 250 µM [1] [%] | percent reduction of T50 germination time vs untreated control at 250 µM [1] [%]
COC(=O)C(/C=C/C1CCCCC1)=C/OC1OC(=O)C(C)=C1C (centres unmarked) [Compound P-3, methyl (E,2E)-4-cyclohexyl-2-[(3,4-dimethyl-5-oxo-2H-furan-2-yl)oxymethylene]but-3-enoate] |  | > 50 | > 5
COC(=O)/C(C=C(C)C)=C/OC1C=C(C)C(=O)O1 (centres unmarked) [Compound P-9, methyl (2E)-4-methyl-2-[(4-methyl-5-oxo-2H-furan-2-yl)oxymethylene]pent-3-enoate] |  | > 50 | > 5
COC(=O)C(/C=C/C1(C)CCCC1)=C/OC1C=C(C)C(=O)O1 (centres unmarked) [Compound P-6, methyl (E,2E)-4-(1-methylcyclopentyl)-2-[(4-methyl-5-oxo-2H-furan-2-yl)oxymethylene]but-3-enoate] | < 3000 | > 50 | > 5
COC(=O)C(/C=C/C(C)(C)C(=O)N(C)C)=C/OC1C=C(C)C(=O)O1 (centres unmarked) [Compound P-20, methyl (E,2E)-6-(dimethylamino)-5,5-dimethyl-2-[(4-methyl-5-oxo-2H-furan-2-yl)oxymethylene]-6-oxo-hex-3-enoate] | < 3000 |  | 
COC(=O)C(/C=C/C(C)(C)C(=O)OC)=C/OC1C=C(C)C(=O)O1 (centres unmarked) [Compound P-19, dimethyl (E,5E)-2,2-dimethyl-5-[(4-methyl-5-oxo-2H-furan-2-yl)oxymethylene]hex-3-enedioate] | < 3000 | > 50 | > 5
COC(=O)C(/C=C/C(C)(C)OC)=C/OC1C=C(C)C(=O)O1 (centres unmarked) [Compound P-12, methyl (E,2E)-5-methoxy-5-methyl-2-[(4-methyl-5-oxo-2H-furan-2-yl)oxymethylene]hex-3-enoate] | < 3000 | > 50 | 
COC(=O)C(/C=C/C(C)(C)C)=C/OC1OC(=O)C(C)=C1C (centres unmarked) [Compound P-10, methyl (E,2E)-2-[(3,4-dimethyl-5-oxo-2H-furan-2-yl)oxymethylene]-5,5-dimethyl-hex-3-enoate] |  | > 50 | > 5
C=C(C)C1(/C=C/C(=C\OC2C=C(C)C(=O)O2)C(=O)OC)C(=O)CC1(C)C (centres unmarked) [Compound P-15, methyl (E,2E)-4-(1-isopropenyl-2,2-dimethyl-4-oxo-cyclobutyl)-2-[(4-methyl-5-oxo-2H-furan-2-yl)oxymethylene]but-3-enoate] | < 3000 | > 50 | > 5
COC(=O)/C=C/C(=C\OC1C=C(C)C(=O)O1)C(=O)OC (centres unmarked) [Compound P-8, dimethyl (E,4E)-4-[(4-methyl-5-oxo-2H-furan-2-yl)oxymethylene]pent-2-enedioate] | < 3000 | > 50 | > 5

Continued, in another order:

IC50 [2] [nM] | SMILES | change in vivo at 250 µM [1] [%] | percent reduction of T50 germination time vs untreated control at 250 µM [1] [%]
< 3000 | COC(=O)C(/C=C/C1CCC(F)(F)CC1)=C/OC1C=C(C)C(=O)O1 (centres unmarked) [Compound P-2, methyl (E,2E)-4-(4,4-difluorocyclohexyl)-2-[(4-methyl-5-oxo-2H-furan-2-yl)oxymethylene]but-3-enoate] | > 50 | > 5
< 3000 | COC(=O)C(/C=C/C(C)(C)N(C)C(C)=O)=C/OC1C=C(C)C(=O)O1 (centres unmarked) [Compound P-17, methyl (E,2E)-5-[acetyl(methyl)amino]-5-methyl-2-[(4-methyl-5-oxo-2H-furan-2-yl)oxymethylene]hex-3-enoate] |  | 
< 3000 | COC(=O)C(/C=C/C1(C)CC1)=C/OC1C=C(C)C(=O)O1 (centres unmarked) [Compound P-7, methyl (E,2E)-4-(1-methylcyclopropyl)-2-[(4-methyl-5-oxo-2H-furan-2-yl)oxymethylene]but-3-enoate] |  | 
< 3000 | COC(=O)C(/C=C/C12CC3CC(CC(C3)C1)C2)=C/OC1C=C(C)C(=O)O1 (centres unmarked) [Compound P-4, methyl (E,2E)-4-(1-adamantyl)-2-[(4-methyl-5-oxo-2H-furan-2-yl)oxymethylene]but-3-enoate] |  | > 5
< 3000 | COC(=O)C(/C=C/C(C)(C)C#N)=C/OC1C=C(C)C(=O)O1 (centres unmarked) [Compound P-16, methyl (E,2E)-5-cyano-5-methyl-2-[(4-methyl-5-oxo-2H-furan-2-yl)oxymethylene]hex-3-enoate] |  | 
